From patent US4056626A, “Pharmaceutical composition containing benzofuran derivative” (Kakenyaku Kako Co., Ltd., priority 1971, dated 1977)
Values joined by “and” are separate entries in the source; they are usually repeats but may differ in a detail not shown here. Equal entries are not always repeated. “Also recorded” adds a separate entry of the source.

Key:
cardiac arrhythmias = experiment: clinical study of cardiac arrhythmias; assay type: in vivo, patients; design: key to Treatment evaluation: Extremely effective (++): An outstanding improvement of subjective symptom and an outstanding improvement in electrocardiogram were observed.; Effective (+): Therapeutic effects were clearly observed.; Slightly effective (±): Subjective symptom was fairly decreased and some improvement in electrocardiogram was observed.; Non-effective (-): Any therapeutic effect was not observed; conditions: oral 30 to 60 mg./day, 10 days to 12 weeks
Description: The active ingredient, 2-acetyl-7-(2-hydroxy-3-isopropylaminopropoxy)benzofuran hydrochloride, contained in the capsules obtained in Example 47 was administrered orally in a dose of 30 to 60 mg./day for a period of 10 days to 12 weeks. The treatment evaluation was determined according to the following standard: […]

angina pectoris = experiment: clinical study of angina pectoris; assay type: in vivo, patients; design: key: Extremely effective (++): An outstanding improvement of subjective symptom and an outstanding improvement in electrocardiogram were observed.; Effective (+): Therapeutic effects were clearly observed.; Slightly effective (±): Subjective symptom was fairly decreased and some improvement in electrocardiogram was observed.; Non-effective (-): Any therapeutic effect was not observed; conditions: oral 15 to 60 mg./day, 1 to 10 weeks, per patient, hydrochloride
Description: A clinical study relating to angina pectoris was made covering the patients shown in Table V. The active ingredient, 2-acetyl-7-(2-hydroxy-3-isopropylaminopropoxy)benzofuran hydrochloride, contained in the capsules obtained in Example 47 was administered orally in a dose of 15 to 60 mg./day for a period of 1 to 10 weeks.

hypertension = experiment: clinical study of hypertension; assay type: in vivo; conditions: four hypertensive patients; oral 60 mg./day, 30 days
Description: To a patient of 68 age who was diagnosed as an essential hypertension was orally administered the active ingredient, 2-acetyl-7-(2-hydroxy-3-isopropyl aminopropoxy)benzofuran hydrochloride, […] As a result, the maximum blood pressure of 210 mmHg and the minimum blood pressure of 88 mmHg before treatment were decreased to 176 mmHg and 76 mmHg after treatment, respectively.

[1] = test system: tachycardia in hyperthyroidism; experiment: clinical study: tachycardia in hyperthyroidism, single administration; assay type: in vivo, patients; conditions: 14 days
Description: A. A therapeutic effect of the present pharmaceutical composition to tachycardia in hyperthyroidism in case of its signle administration was investigated.
To 12 patients of hyperthyroidism shown in Table VI was orally administered the active ingredient, 2-acetyl-7-(2-hydroxy-3-isopropylaminopropoxy)benzofuran hydrochloride, contained in the capsules obtained in Example 47 in a dose of 30 mg./day (3 times per day) for 14 days. The treatment evaluation was determined according to the following standard:
For reference, a therapeutic effect of an antihyperthyroidism medicament to tachycardia in hyperthyroidism in case of its single administration was investigated.
To 12 patients of hyperthyroidism shown in Table VII was orally administered Mercazol which has been widely employed as an antihyperthyroidism medicament in a dose of 30 mg./day for 14 days.

[2] = test system: tachycardia in hyperthyroidism; experiment: clinical study: tachycardia in hyperthyroidism, combination with antihyperthyroidism medicament; assay type: in vivo, patients; conditions: in combination with Mercazol, 14 days, per patient
Description: (B) A therapeutic effect of the present pharmaceutical composition in combination with an antihyperthyroidism medicament to tachycardia in hyperthyroidism was investigated.
To six patients of hyperthyroidism shown in Table VIII were orally administered the active ingredient, 2-acetyl-7-(2-hydroxy-3-isopropylaminopropoxy)benzofuran hydrochloride, contained in the capsules obtained in Example 47 and Mercazol in each dose of 30 mg./day (three times per day) for 14 days.

[3] = one value per patient, hydrochloride

With `CC(=O)c1cc2cccc(OCC(O)CNC(C)C)c2o1.Cl` (stereo not shown) [2-acetyl-7-(2-hydroxy-3-isopropylaminopropoxy)benzofuran hydrochloride] the Treatment evaluation (cardiac arrhythmias; cardiac arrhythmias, per patient, hydrochloride) was “+ and ± and - and ++”, the “Blood pressure after treatment (first figure, systolic)” value (cardiac arrhythmias; [3]) was 96 mmHg and 114 mmHg and 104 mmHg and 130 mmHg and 145 mmHg and 154 mmHg and 165 mmHg and 125 mmHg and 108 mmHg and 135 mmHg and 118 mmHg and the “Blood pressure after treatment (second figure, diastolic)” value (cardiac arrhythmias; [3]) was 66 mmHg and 70 mmHg and 62 mmHg and 78 mmHg and 110 mmHg and 75 mmHg and 80 mmHg and 68 mmHg. For the same molecule, the “Heart rate/min. after treatment” value (cardiac arrhythmias; [3]) was 60 min⁻¹ and 82 min⁻¹ and 68 min⁻¹ and 72 min⁻¹ and 76 min⁻¹ and 64 min⁻¹ and 100 min⁻¹, the Side effect (cardiac arrhythmias; per patient) was “No” and the Treatment evaluation (angina pectoris) was “± and + and - and ++”. For the same molecule, the good therapeutic results (hypertension) was “three patients among four, good therapeutic results were obtained”, the “Pulse rate after treatment, average” value ([1]; 12 patients, oral 30 mg./day, average before treatment 114.5, standard deviation 11.6, in beats/min (unit assumed)) was 90.4 and the Pulse rate difference, average ([1]; 12 patients, oral 30 mg./day, standard deviation printed 1.1) was 23.8 beats/min. The Pulse rate difference ([1]; before minus after, oral 30 mg./day (3 times per day), per patient, hydrochloride, in beats/min (unit assumed)) was 22 and 32 and 14 and 30 and 51 and 28 and 24 and 20 and 8 and 16, the Side effect ([1]; hyperthyroidism, oral 30 mg./day (3 times per day), per patient) was “No” and the Treatment evaluation ([1]; hyperthyroidism, oral 30 mg./day (3 times per day), per patient, hydrochloride) was “++ (Extremely effective (++): The pulse rate before treatment was decreased in a difference of not less than 20 after treatment.); also recorded: + (Effective (+): The pulse rate before treatment was decreased in a difference of 10 to 19 after treatment.)”. The “Pulse rate after treatment” value ([1]; hyperthyroidism, oral 30 mg./day (3 times per day), per patient, hydrochloride, in beats/min (unit assumed)) was 80 and 108 and 88 and 100 and 77 and 76 and 84, the “Pulse rate after treatment” value ([2]; each oral 30 mg./day (three times per day), hydrochloride, in beats/min (unit assumed)) was 88 and 76 and 78 and 68 and 82 and the Side effect ([2]; each oral 30 mg./day) was “No”. For the same molecule, the Treatment evaluation ([2]; each oral 30 mg./day, hydrochloride) was “+ (Effective (+): The pulse rate before treatment was decreased in a difference of 10 to 19 after treatment.); also recorded: ++ (Extremely effective (++): The pulse rate before treatment was decreased in a difference of not less than 20 after treatment.)”.
